Earlier results, collected in article PMC5224880, “Discovery and Molecular Basis of a Diverse Set of Polycomb Repressive Complex 2 Inhibitors Recognition by EED” (PLoS ONE, 2017).
Entries after “also recorded” stand apart in the source; their conditions may differ.

Columns and labels:
[1] = system: tumor growth in the xenograft mouse model; parameters: method as in PMID 28135235; details: cited from earlier work
PRC2 = system: PRC2; parameters: method as in PMID 28135235; details: recombinant NCP as substrate; read-out: half-maximum stimulation (Kact) of PRC2 activity; cited from earlier work

In the case of `CS(=O)(=O)c1ccc(-c2cnc(NCc3ccco3)n3cnnc23)cc1` [EED226], the antitumor activity [1] is given as “strong antitumor activity; also recorded: completely regressed tumor growth”.
In the case of “H3K27me3 stimulatory peptide: activation peptide H3K27me3 (21–44) used to stimulate PRC2 activity for the nucleosome substrate”, the EC50 (PRC2) is listed as 1000 nM.
